From ChEMBL document CHEMBL4118183, “Lipophilic methylene blue analogues enhance mitochondrial function and increase frataxin levels in a cellular model of Friedreich's ataxia” (Bioorg Med Chem, 2018)
Activity calls are given as the source filed them. The calls are words filed in the database; no cut-off is given here.

Key:
[1] = tested on: Friedreich's ataxia lymphocyte; assay: Inhibition of DEM-induced ROS production in human Friedreich's ataxia lymphocytes incubated for 16 hrs followed by DEM treatment for 80 mins by DCFH-DA dye based flow cytometry; type: functional, cell-based
[2] = Cytotoxicity against human Friedreich's ataxia lymphocytes assessed as cell viability by measuring live cells at 2500 nM after 48 hrs by calceinAM ester/ethidium homodimer-1 staining based flow cytometry (reference value: 89.3%); design: species or system Friedreich's ataxia lymphocyte; conditions: read-out: Activity
[3] = species on record: Homo sapiens; assay: (§1) Cytoprotective activity against BSO-treated human Friedreich's ataxia fibroblasts assessed as increase in cell viability incubated overnight followed by BSO addition measured after 48 hrs by calceinAM ester/ethidium homodimer-1 staining based flow cytometry; type: functional
[4] = species on record: Mus musculus; assay: Substrate activity at NADH-ubiquinone oxidoreductase in mouse liver mitochondrial membrane fractions assessed as induction of electron flow from complex-1 by measuring NADH oxidation at 5 uM after 5 mins in presence of complex 1 blocker rotenone at 0.1 uM using NADH and coenzyme Q1; type: cell membranes
[5] = tested on: Friedreich's ataxia lymphocyte; assay: Increase in total ATP levels in human Friedreich's ataxia lymphocytes at 100 nM after 24 hrs by bioluminescence assay; type: functional, cell-based
[6] = Cytotoxicity against human Friedreich's ataxia lymphocytes assessed as cell viability by measuring live cells at 2500 nM after 24 hrs by calceinAM ester/ethidium homodimer-1 staining based flow cytometry (reference value: 88.2%); design: species or system Friedreich's ataxia lymphocyte; conditions: read-out: Activity
[7] = tested on: Friedreich's ataxia lymphocyte; assay: Increase in total ATP levels in human Friedreich's ataxia lymphocytes at 0.5 to 2.5 uM after 24 hrs by bioluminescence assay; type: functional, cell-based
[8] = tested on: Friedreich's ataxia lymphocyte; assay: Restoration of total aconitase activity in FRDA patient derived Friedreich's ataxia lymphocytes at 50 to 250 nM after 5 days by colorimetric assay; type: functional, cell-based; conditions: Homo sapiens
[9] = Cytotoxicity against human Friedreich's ataxia lymphocytes assessed as cell viability by measuring live cells at 250 nM after 48 hrs by calceinAM ester/ethidium homodimer-1 staining based flow cytometry (reference value: 89.3%); design: species or system Friedreich's ataxia lymphocyte; conditions: read-out: Activity
[10] = tested on: Friedreich's ataxia lymphocyte; assay: Cytoprotective activity against rotenone-induced cytotoxicity in human Friedreich's ataxia lymphocytes assessed as increase in cell viability at 250 to 2500 nM preincubated for 12 hrs followed by complex 1 inhibitor rotenone addition measured after 16 hrs by calceinAM ester/ethidium homodimer-1 staining based flow cytometry; type: functional
[11] = Cytotoxicity against human Friedreich's ataxia lymphocytes assessed as cell viability by measuring live cells at 250 nM after 24 hrs by calceinAM ester/ethidium homodimer-1 staining based flow cytometry (reference value: 88.2%); design: species or system Friedreich's ataxia lymphocyte; conditions: read-out: Activity
[12] = Increase in frataxin protein expression levels in FRDA patient derived Friedreich's ataxia lymphocytes at 50 nM after 24 to 48 hrs by ELISA relative to control; type: functional, Homo sapiens, Friedreich's ataxia lymphocyte
[13] = Induction of inner mitochondrial membrane potential depolarization in human Friedreich's ataxia lymphocytes assessed as JC-1 monomers at 250 nM after 16 hrs by JC1-staining based flow cytometry (reference value: 17.3%); type: functional, Friedreich's ataxia lymphocyte
[14] = Cytotoxicity against human Friedreich's ataxia lymphocytes assessed as cell viability by measuring dead cells at 250 nM after 24 hrs by calceinAM ester/ethidium homodimer-1 staining based flow cytometry (reference value: 11.2%); conditions: friedreich's ataxia lymphocyte, 0.25 µM
[15] = Induction of inner mitochondrial membrane potential depolarization in human Friedreich's ataxia lymphocytes assessed as JC-1 aggregates at 2500 nM after 16 hrs by JC1-staining based flow cytometry (reference value: 83%); type: functional, Friedreich's ataxia lymphocyte
[16] = as §1; type: functional
[17] = tested on: Friedreich's ataxia lymphocyte; assay: Increase in total ATP levels in human Friedreich's ataxia lymphocytes at 0.1 to 0.5 uM after 24 hrs by bioluminescence assay; type: functional, cell-based
[18] = species on record: Homo sapiens; assay: Cytoprotective activity against BSO-treated human Friedreich's ataxia fibroblasts assessed as increase in cell viability at 25 to 50 nM incubated overnight followed by BSO addition measured after 48 hrs by calceinAM ester/ethidium homodimer-1 staining based flow cytometry; type: functional
[19] = tested on: Friedreich's ataxia lymphocyte; assay: (§2) Increase in frataxin protein expression levels in FRDA patient derived Friedreich's ataxia lymphocytes at 250 nM after 24 to 48 hrs by ELISA; type: functional; conditions: Homo sapiens
[20] = Induction of mitochondrial biogenesis in FRDA patient derived Friedreich's ataxia lymphocytes assessed as increase in COX-1/SDH-A protein levels at 50 nM after 24 to 48 hrs by ELISA relative to control; type: functional, Homo sapiens, Friedreich's ataxia lymphocyte
[21] = tested on: Friedreich's ataxia lymphocyte; assay: (§3) Induction of mitochondrial biogenesis in FRDA patient derived Friedreich's ataxia lymphocytes assessed as increase in COX-1/SDH-A protein levels at 250 nM after 24 to 48 hrs by ELISA; type: functional; conditions: Homo sapiens
[22] = Induction of inner mitochondrial membrane potential depolarization in human Friedreich's ataxia lymphocytes assessed as JC-1 aggregates at 250 nM after 16 hrs by JC1-staining based flow cytometry (reference value: 83%); type: functional, Friedreich's ataxia lymphocyte
[23] = tested on: Friedreich's ataxia lymphocyte; assay: Increase in total ATP levels in human Friedreich's ataxia lymphocytes at 2.5 uM after 24 hrs by bioluminescence assay; type: functional, cell-based
[24] = Cytotoxicity against human Friedreich's ataxia lymphocytes assessed as cell viability by measuring dead cells at 250 nM after 48 hrs by calceinAM ester/ethidium homodimer-1 staining based flow cytometry (reference value: 10.6%); conditions: friedreich's ataxia lymphocyte, 0.25 µM
[25] = Induction of inner mitochondrial membrane potential depolarization in human Friedreich's ataxia lymphocytes assessed as JC-1 monomers at 2500 nM after 16 hrs by JC1-staining based flow cytometry (reference value: 17.3%); type: functional, Friedreich's ataxia lymphocyte
[26] = Cytotoxicity against human Friedreich's ataxia lymphocytes assessed as cell viability by measuring dead cells at 2500 nM after 24 hrs by calceinAM ester/ethidium homodimer-1 staining based flow cytometry (reference value: 11.2%); conditions: friedreich's ataxia lymphocyte, 2.5 µM
[27] = Cytotoxicity against human Friedreich's ataxia lymphocytes assessed as cell viability by measuring dead cells at 2500 nM after 48 hrs by calceinAM ester/ethidium homodimer-1 staining based flow cytometry (reference value: 10.6%); conditions: friedreich's ataxia lymphocyte, 2.5 µM
[28] = tested on: Friedreich's ataxia lymphocyte; assay: Inhibition of DEM-induced ROS production in human Friedreich's ataxia lymphocytes at 250 to 2500 nM incubated for 16 hrs followed by DEM treatment for 80 mins by DCFH-DA dye based flow cytometry; type: functional, cell-based
[29] = as §2; type: functional, Homo sapiens, Friedreich's ataxia lymphocyte
[30] = as §3; type: functional, Homo sapiens, Friedreich's ataxia lymphocyte
[31] = tested on: Friedreich's ataxia lymphocyte; assay: Increase in total ATP levels in human Friedreich's ataxia lymphocytes at 0.1 uM after 24 hrs by bioluminescence assay; type: functional, cell-based

Row | Structure (SMILES) | inhibition [1] | viability at 48 h, 2.5 µM [2] [%] | Activity [3] | Activity [5] | viability at 24 h, 2.5 µM [6] [%] | Activity [7] | viability at 48 h, 0.25 µM [9] [%] | Activity [10] | viability at 24 h, 0.25 µM [11] [%] | Activity [13] [%] | Activity [14] [%] | Activity [15] [%] | EC50 [16] [nM] | Activity [19] | Activity [21] | Activity [22] [%] | Activity [24] [%] | Activity [25] [%] | Activity [26] [%] | Activity [27] [%] | also measured
1 | CN(C)c1ccc2nc3ccc(=[N+](C)C)cc-3sc2c1 [METHYLENE BLUE ANHYDROUS] | Dose-dependent effect | 15.4 | Dose-dependent effect | inactive | 60.2 | inactive | 77.5 | Active | 85.4 | – | – | – | – | – | – | – | – | – | – | – | Activity [4]: Active; Activity [8]: Active
2 | CCCCCCCCCCCCCCCCc1cc2nc3ccc(N(C)C)cc3sc-2cc1=[N+](C)C.[I-] | Dose-dependent effect | 81.2 | Dose-dependent effect | – | 87 | – | 89.4 | Active | 91.4 | 18.2 | 8.4 | 77 | 29 | inactive | inactive | 82.1 | 10.5 | 23.3 | 13 | 18.6 | Activity [12]: >=10%; Activity [4]: Active; Activity [17]: Active; Activity [8]: Active; Activity [18]: Active; Activity [20]: >=15%; Activity [23]: inactive
3 | CCCCCCCCCCCCCCCCCc1cc2nc3ccc(N(C)C)cc3sc-2cc1=[N+](C)C.[I-] | – | 86.2 | Dose-dependent effect | – | 89.2 | – | 87.7 | Active | 91 | 15.2 | 8.8 | 77.1 | 48 | inactive | inactive | 85.3 | 12.2 | 23.4 | 10.5 | 13.5 | Activity [17]: Active; Activity [23]: inactive; inhibition [28]: Active
4 | CCCCCCCCCCCCCc1cc2nc3ccc(N(C)C)cc3sc-2cc1=[N+](C)C.[I-] | Dose-dependent effect | 21.6 | Dose-dependent effect | inactive | 41.3 | inactive | 86.7 | Active | 89.3 | 17.6 | 10.3 | 30.6 | 37 | – | – | 82.8 | 13.1 | 72.2 | 58.5 | 78 | Activity [18]: Active; Activity [29]: >=15%; Activity [30]: >=20%
5 | CCCCCCCCCCCCCCCc1cc2nc3ccc(N(C)C)cc3sc-2cc1=[N+](C)C.[I-] | Dose-dependent effect | 68.7 | Dose-dependent effect | – | 78.2 | inactive | 85.4 | Active | 89.4 | 14.2 | 10.3 | 73 | 31 | inactive | inactive | 86.2 | 14.5 | 28.4 | 21.4 | 31.2 | Activity [12]: >=10%; Activity [31]: Active; Activity [18]: Active; Activity [20]: >=15%
6 | CCCCCCCCCCCc1cc2nc3ccc(N(C)C)cc3sc-2cc1=[N+](C)C.[I-] | Dose-dependent effect | 16.2 | Dose-dependent effect | inactive | 45.1 | inactive | 85.7 | Active | 89.5 | 17.4 | 10.2 | 54.8 | 35 | inactive | inactive | 82.9 | 14.2 | 46.9 | 54.7 | 83.5 | Activity [12]: >=10%; Activity [18]: Active; Activity [20]: >=15%
7 | CCCCCCCCCCCCCCCCCc1cc2nc3ccc(N4CCOCC4)cc3sc-2cc1=[N+]1CCOCC1.[I-] | – | 79 | Dose-dependent effect | – | 87.9 | – | 87.4 | Active | 91.3 | 16 | 8.6 | 79.8 | 52 | inactive | inactive | 84.2 | 12.4 | 20.7 | 12 | 20.8 | Activity [17]: Active; Activity [23]: inactive; inhibition [28]: Active
8 | CN(C)c1ccc2nc3ccc(N(C)C)cc3[s+]c2c1.[Cl-] [METHYLENE BLUE ANHYDROUS] | – | – | – | – | – | – | – | – | – | 20.2 | 14.3 | 49 | 75 | – | – | 80.3 | 22.5 | 51.2 | 39.6 | 84.3 | Activity [12]: >=10%; Activity [29]: >=15%; Activity [20]: >=15%; Activity [30]: >=20%
9 | CCCCCc1cc2nc3ccc(N(C)C)cc3sc-2cc1=[N+](C)C.[I-] | – | 4.4 | Dose-dependent effect | inactive | 37.5 | inactive | 78.7 | Active | 82.6 | 16.9 | 17.2 | 31.4 | 66 | – | – | 83.5 | 21 | 70.9 | 62.4 | 95.2 | Activity [4]: Active; Activity [29]: >=15%; Activity [30]: >=20%; inhibition [28]: Active
